Converted amounts (≈) assume the structure as drawn. “And” between values parts separate entries of the source, which are not always exact repeats. Equal values may be shown once. “Also recorded” adds a separate entry of the source.
Tests used:
[1] = Histopathological analysis of kidneys and livers after high-dose IV administration; type: in vivo, mice; details: 30 mg/kg IV; for histopathological examination of liver / kidney tissue discoloration: 24 hours after treatment; for overall acute toxicity assessment: high-dose groups
Protocol: The sustained high urine concentrations observed for CDCHD at 15 mg/kg IV raised the concern that accumulation might occur. We therefore performed histopathological analysis of livers and kidneys. A dose of 30 mg/kg of CHD and CDCHD was administered intravenously, and livers and kidneys were examined 24 hours after treatment to investigate signs of acute toxicity.
CHD and CDCHD were administered in single PK studies at the doses of 15 mg/kg and 30 mg/kg IV, at 15 mg/kg SC, and 15 mg/kg PO. Up to 25 µL of blood was collected from the lateral tail vein (n = 3 per time point) and time points t = 0.5, 1, 2, 4, and 8 hours. For 15 mg/kg IV- and PO-administered compounds, blood was also collected at time points t = 24 and 48 hours. For IV- and SC-administered compounds, blood was also collected at t = 0.25 hours. At t = 24 hours (15 mg/kg SC, 30 mg/kg IV) or 72 hours (15 mg/kg IV and PO), animals were euthanized to collect blood. At every blood collection, time point spontaneous urine was collected as well. Whole blood was collected into Eppendorf tubes coated with 0.5 M EDTA and immediately spun down at 15,870× g for 10 min at 4°C. Then, plasma was transferred into a new Eppendorf tube and stored at −80°C until analysis.
(§1) Approximately 3 µm thick sections of formalin-fixed, paraffin-embedded samples of liver and kidney were analyzed blinded, and randomized to the experimental groups by a trained veterinarian. […] Kidneys were analyzed for changes in the glomeruli (not found), tubular dilation (1 = mild or up to 20% of tubuli affected, 2 = moderate or 25-40% of tubuli affected, 3 = severe 50% or more), and inflammatory infiltrate in the pelvis (1 = mild, 2 = moderate, 3 = severe).

A. baumannii DSM-30008 = test: MIC determination; type: cell-based; details: MHB medium
Protocol: (§2) The assay was conducted as described previously ([54]) with the following modifications. The MIC was tested against the K. pneumoniae strain ATCC 43816 in an MHB (not cation-adjusted) medium. CHD and CDCHD were tested in concentrations ranging from 0.078 to 10 µg/mL. Moreover, the MIC was determined for the following strains: K. pneumoniae DSM-30104, E. faecium DSM-20477, S. aureus DSM-346, P. aeruginosa DSM-11128, A. baumannii DSM-30008, E. aerogenes DSM-30053, E. coli ATCC 25922, and E. coli C175-94. All strains were grown in MHB medium, except for E. faecium, which was grown in TSB. CHD, epi-CDH, and CDCHD were tested in concentrations ranging from 0.125 to 64 µg/mL as described previously ([19]).

E. aerogenes DSM-30053 = test: MIC determination; type: cell-based; details: MHB medium
Protocol: as §2

E. coli ATCC 25922 = test: MIC determination; type: cell-based; details: MHB medium
Protocol: as §2

E. coli C175-94 = test: MIC determination; type: cell-based; details: MHB medium
Protocol: as §2

E. faecium DSM-20477 = test: MIC determination; type: cell-based; details: TSB medium
Protocol: as §2

K. pneumoniae DSM-30104 = test: MIC determination; type: cell-based; details: MHB medium
Protocol: as §2

P. aeruginosa DSM-11128 = test: MIC determination; type: cell-based; details: MHB medium
Protocol: as §2

S. aureus DSM-346 = test: MIC determination; type: cell-based; details: MHB medium
Protocol: as §2

[2] = Histopathological analysis of kidneys and bladder in the ascending urinary tract infection model (satellite groups); type: in vivo, mice; design: key to histopathological score Pelvis: 1 = mild; 2 = moderate; 3 = severe; histopathological score Papilla / histopathological score Bladder: scale not given here; details: for histopathological findings in bladder / histopathological findings in kidneys: infected mice, CHD/CDCHD 12 mg/kg SC BID, gentamicin 100 mg/kg SC BID
Protocol: The model was conducted as described previously ([27], [60]). In brief, n = 21 animals were used per group in the main study, and n = 3 animals per group in satellite groups for histopathological analysis. Three days before the start of the study and during the study, mice had free access to 5% glucose as drinking water. Fresh overnight colonies of E. coli from a 5% horse blood agar plate were suspended in PBS pH 7.4 to approximately 10^9 cfu/mL. Approximately 1 hour before inoculation, mice were treated orally with […] Nurofen (20 mg ibuprofen/mL corresponding to approximately 30 mg/kg) as a pain relief. Urine was removed from the bladder by gently pressing the abdomen and mice were anaesthetized with 0.15 mL Zoletil mix SC. Thereafter, the mice were inoculated. A syringe with a catheter, containing the bacterial suspension was inserted via the urethra into the bladder and 50 µL of the inoculum was slowly injected into the bladder. Hereafter, the mouse was placed in the cage and kept in a warming cabinet until fully awake (approximately 4 hours). The mice were treated with CHD (12 mg/kg SC BID), CDCHD (12 mg/kg SC BID), gentamicin (100 mg/kg SC BID), or vehicle BID (2nd dose was administered approximately 6 hours after the 1st dose on each day) on day 1, that is, first dose around 24 hours post-infection, and day 2 post-inoculation. The mice were observed during the study and scored based on their behavior and clinical signs. Clinical scoring comprised assessment of piloerection in the skin, activity (movement, curiosity), and appearance of eyes. The scoring range comprised 0–4. In our model, a maximum score of 1; thus, only mild discomfort was observed. On day 3 post-inoculation and after sampling urine, mice were euthanized by cervical dislocation, and bladder and kidneys were removed from 21 mice in each treatment group aseptically for cfu determination. The bladder and kidneys were stored at −80°C and later homogenized in 0.5 or 1 mL saline, respectively. Colony counts of urine were determined immediately. From the three additional mice in each treatment group (satellite groups), urine and plasma were sampled and frozen at −80°C, and bladders, kidneys, and liver were collected in 4% buffered formalin. Cfu was determined in urine samples within 2–3 hours after sampling. Frozen organs were thawed and homogenized with steel beads using a tissue lyser. All samples, urine, kidney, and bladder, were 10-fold diluted in saline and 20 µL spots were applied on blue agar plates in duplicates. In addition, undiluted samples of urine (2–100 μL depending on the available amount of urine) were spread on a separate agar plate to determine the colony counts at the lowest possible detection level. All agar plates were incubated for 18–22 hours at 35°C in ambient air.
as §1

Cc1ccc2c(C)c3c(c(O)c2c1O)C(=O)C1(O)C(=O)C(C(N)=O)=C(O)C(N)C1C3 (stereo not shown) [CDCHD, 2-carboxamido-2-deacetyl-chelocardin]
histopathological examination of liver [1]: sporadic extramedullary erythropoiesis and thrombopoiesis; also recorded: a moderate reduction of glycogen, moderate anisokaryosis, and a moderate amount of double-nucleated cells | kidney tissue discoloration [1]: yellow tissue discoloration | overall acute toxicity assessment [1]: no immediate toxicity red flags | MIC (A. baumannii DSM-30008): 8 µg/mL (≈ 19.4 µM) | MIC (E. aerogenes DSM-30053): 8 µg/mL (≈ 19.4 µM) | MIC (E. coli ATCC 25922): 2 µg/ml and ~ 2 µg/ml | MIC (E. coli C175-94): 2 to 4 µg/mL | MIC (E. faecium DSM-20477): 2 µg/mL (≈ 4.85 µM) | MIC (K. pneumoniae DSM-30104): 1 µg/mL (≈ 2.42 µM) | MIC (P. aeruginosa DSM-11128): 16 µg/mL (≈ 38.8 µM) | MIC (S. aureus DSM-346): 2 µg/mL (≈ 4.85 µM) | histopathological score Bladder ([2]; animal No. 1): 0 | histopathological score Glomeruli ([2]; animal No. 1): 0 | histopathological score Papilla ([2]; animal No. 1): 0 | histopathological score Pelvis ([2]; animal No. 1): 0 | histopathological score Tubuli ([2]; animal No. 1): 2 (2 = moderate or 25-40% of tubuli affected) | histopathological score Bladder ([2]; animal No. 2): 0 | histopathological score Glomeruli ([2]; animal No. 2): 0 | histopathological score Papilla ([2]; animal No. 2): 0 | histopathological score Pelvis ([2]; animal No. 2): 1 | histopathological score Tubuli ([2]; animal No. 2): 2 (2 = moderate or 25-40% of tubuli affected) | histopathological score Bladder ([2]; animal No. 3): 0 | histopathological score Glomeruli ([2]; animal No. 3): 0 | histopathological score Papilla ([2]; animal No. 3): 1 | histopathological score Pelvis ([2]; animal No. 3): 0 | histopathological score Tubuli ([2]; animal No. 3): 1 (1 = mild or up to 20% of tubuli affected) | histopathological findings in bladder [2]: did not show any significant alterations | histopathological findings in kidneys [2]: a moderate tubulus dilation (resulting in moderate or 20%–40% of tubuli affected) and protein casts

CC(=O)C1=C(O)[C@H](N)[C@@H]2Cc3c(c(O)c4c(O)c(C)ccc4c3C)C(=O)[C@]2(O)C1=O [CHD, chelocardin]
histopathological examination of liver [1]: sporadic extramedullary erythropoiesis and thrombopoiesis | kidney tissue discoloration [1]: yellow tissue discoloration | overall acute toxicity assessment [1]: no immediate toxicity red flags | MIC (A. baumannii DSM-30008): 16 µg/mL (≈ 38.9 µM) | MIC (E. aerogenes DSM-30053): 32 µg/mL (≈ 77.8 µM) | MIC (E. coli ATCC 25922): 2 µg/ml and ~ 2 µg/ml | MIC (E. coli C175-94): 2 µg/mL (≈ 4.86 µM) | MIC (E. faecium DSM-20477): 4 µg/mL (≈ 9.72 µM) | MIC (K. pneumoniae DSM-30104): 2 to 4 µg/mL | MIC (P. aeruginosa DSM-11128): > 64 µg/mL | MIC (S. aureus DSM-346): 4 µg/mL (≈ 9.72 µM) | histopathological score Glomeruli ([2]; animal No. 1): 0 | histopathological score Papilla ([2]; animal No. 1): 2 | histopathological score Pelvis ([2]; animal No. 1): 0 | histopathological score Tubuli ([2]; animal No. 1): 3 (3 = severe 50% or more) | histopathological score Bladder ([2]; animal No. 2): - 1 1 | histopathological score Glomeruli ([2]; animal No. 2): 0 | histopathological score Papilla ([2]; animal No. 2): 2 | histopathological score Pelvis ([2]; animal No. 2): 1 | histopathological score Tubuli ([2]; animal No. 2): 3 (3 = severe 50% or more) | histopathological score Bladder ([2]; animal No. 3): - 1 1 | histopathological score Glomeruli ([2]; animal No. 3): 0 | histopathological score Papilla ([2]; animal No. 3): 0 | histopathological score Pelvis ([2]; animal No. 3): 2 | histopathological score Tubuli ([2]; animal No. 3): 1 (1 = mild or up to 20% of tubuli affected) | histopathological findings in bladder [2]: mild, focal, submucosal inflammatory aggregates | histopathological findings in kidneys [2]: moderate tubulus degeneration with vacuolated cytoplasm, accumulation of hyaline droplets, protein casts, and a mild to moderate accumulation of inflammatory cells
